Results on 1 molecule are retold here after US20100129470A1, “METHOD OF TREATING BRAIN CANCER” (Myriad Pharmaceuticals, Incorporated, priority 2007, published 2010).

For this data set, the system named is Subjects with Refractory Solid Tumors. In words: Phase I clinical trial: open-label, dose-escalating, multiple-dose study of weekly intravenous administration. The conditions noted are these: human subjects. The class given is in vivo. The procedure: An open-label, dose-escalating, multiple-dose study to define the safety, tolerability and phamacokinetics of weekly intravenous administration of (4-Methoxy-phenyl)-methyl-(2-methyl-quinazolin-4-yl)-amine hydrochloride was performed. A dosing schedule (each 4 week cycle) was performed for (4-Methoxy-phenyl)-methyl-(2-methyl-quinazolin-4-yl)-amine hydrochloride weekly for 3 weeks with no infusion on the fourth week of each cycle. Subjects with refractory solid tumors were enrolled in cohorts of 3. During Cycle 1, subjects were hospitalized during each infusion of (4-Methoxy-phenyl)-methyl-(2-methyl-quinazolin-4-yl)-amine hydrochloride and remained for observation and safety evaluation for approximately 24 hours following the end of the infusion. All subject had continuous telemetry for 2 hours prior to infusion, for 1-2 hour infusion and for 3 hours after the end of the infusion. Any clinically significant electrocardiographic (ECG) wave form abnormality was recorded and prolongation of the monitoring period extended at the discretion of the principal investigator.
Electrocardiograms were obtrained prior to starting the infusion and within 30 minutes of the end of infusion for each infusino of the first cycle. Electrocardiograms on Day 1 were obtained in triplicate 5 minutes apart.
Neurocognitive assessments were made by administration of the Mini-Mental State Examination (MMSE), the Hopkins Verbal Learning and timed Grooved Pegboard tests before administration of the intravenous infusion and approximately 24 hours of the infusion at each weekly administration of the first cycle.
On days 1, 8, and 15 of each cycle, vital signs were obtained prior to the first dose, at 15, 30, and 60 minutes after the initiation of the infusion, and at 0.5, 1, 1.5, 2, and 4 hours after the end of the intravenous infusion. Vital signs at all time points beyond the start of the intravenous infusion included heart rate, blood pressure and respirations. Temperature ws measured at the end of the infusion and 4 hours later.
Individual subjects were allowed to continue on repeated weekly×3 administrations every 28 days with no dose increase provided there was no unacceptable toxicity or disease progression.
Tumor response was evaluated by response evaluation criteria in solid tumors (RECIST) criteria. To prevent sever hypersensitivity reactions due to Cremophor® EL, subjects were premedicated with oral dexamethasone (20 mg) administered approximately 12 and 6 hours before the intrvenous infusion with (4-Methoxy-phenyl)-methyl-(2-methyl-quinazolin-4-yl)-amine hydrochloride, diphenhydramine (50 mg) or its equivalent administered intravenously 30-60 minutes before (4-Methoxy-phenyl)-methyl-(2-methyl-quinazolin-4-yl)-amine hydrochloride, and cimetidine (300 mg) or ranitidine (50 mg) administered intravenously 30-60 minutes before (4-Methoxy-phenyl)-methyl-(2-methyl-quinazolin-4-yl)-amine hydrochloride.

Where [1] appears, read: weekly i.v. infusion, 0.3-3.3 mg/m^2.

Entries after “also recorded” stand apart in the source; their conditions may differ. Structures can show the parent of a compound that is named as a salt.

In the case of `COc1ccc(N(C)c2nc(C)nc3ccccc23)cc1` [(4-Methoxy-phenyl)-methyl-(2-methyl-quinazolin-4-yl)-amine hydrochloride], the “effects on cardiac conduction (PR, QRS or QTc)” value (ECG, weekly i.v. infusion, 0.3-3.3 mg/m^2) is reported as “no significant effects”. In addition, the safety and tolerability result (weekly i.v. administration, various dosages, hydrochloride) was “safe and well tolerated; also recorded: safe and tolerable”. The peripheral cytotoxicity result (weekly i.v. infusion for 3 weeks of each 4 week cycle, 0.3-3.3 mg/m^2) was “no evidence of cytotoxity peripherally”. For the same molecule, under setting [1], the bradycardia entry is recorded as “occasional episodes of bradycardia”; the dose limiting toxicity result was “vascular in nature, manifested by an acute coronary syndrome”; the intratumor bleeding entry is “incidences of intratumor bleeding”; the systolic blood pressure entry is listed as “dose-related increase”.
